Measurements as given in publication PMC5646861 (PLoS ONE, 2017).

How the values were obtained:
[1] = target: T1, SMO-1 (Caenorhabditis elegans, UniProt P55853); assay: NMR titration (15N-HSQC chemical shift perturbation) of SMO-1 with SIM peptides; format: binding; parameters: inferred from pET15b vector with NdeI/BamHI and Ni-NTA purification) (N); made in house; host or cells: E. coli BL21(DE3)
[2] = target: T1, SMO-1; assay: In vitro SMO-1 conjugation assay with FITC-labelled synthetic peptide substrate (human Aos1/Uba2 E1, human Ubc9 E2); format: biochemical, C. elegans; parameters: inferred from pET15b vector with NdeI/BamHI and Ni-NTA purification) (N); made in house; settings: 10mM of peptide, 50 μM SMO-1 or SUMO1, 1 μM E1, 2.5 μM E2, 1 mM ATP, 4°C, 12 hours, 20 mM Tris-Cl pH 8.5, 250 mM NaCl, 5 mM MgCl2, 0.1% v/v Tween 20; SDS-PAGE, FITC fluorescence 519 nm
Experimental: A synthetic peptide, sequence–[…] with Fluorescein iso-thiocyanate (FITC) label at the N-terminus was used as substrate. […] Reaction was carried out at 4°C for 12 hours. The reaction was started by adding 1 mM ATP. Reaction buffer contained 20 mM Tris-Cl pH 8.5, 250 mM NaCl, 5 mM MgCl2, 0.1% v/v Tween 20. […] Reaction buffer was the same as above. The reaction was carried out at 37°C for 4 hours. All reactions were stopped by adding reducing SDS loading dye. Reaction samples were run on 12% w/v SDS PAGE and analysed by probing FITC fluorescence at 519 nm wavelength (excitation wavelength– 495 nm).
To assess the ability of SMO-1 to be conjugated and deconjugated to substrates we developed an in vitro assay. […] As a substrate we used a synthetic peptide harbouring two consensus SUMOylation sites found in the IE2 protein (Fig 6A). To facilitate detection of SUMOylated peptide on SDS-PAGE gels we labelled the peptide with Fluorescein iso-thiocyanate (FITC) fluorophore. […] To verify, we carried out an in-vitro reaction with FITC tagged SMO-1.
(A) Sequence of FITC fluorophore labelled peptide used as substrate in in vitro SUMOylation assays. The lysines competent for SUMOylation are in bigger font and in bold face. All subsequent images were obtained by observing FITC fluorescence at 519 nm unless otherwise mentioned. […] The SDS-PAGE gel is imaged by observing YFP fluorescence. […]
Target sequence in this assay (P55853 1-90): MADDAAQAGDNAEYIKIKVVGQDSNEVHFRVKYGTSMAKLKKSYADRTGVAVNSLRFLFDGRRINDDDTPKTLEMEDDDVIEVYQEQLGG
Target sequence in this assay (P63279 whole entry, further chain): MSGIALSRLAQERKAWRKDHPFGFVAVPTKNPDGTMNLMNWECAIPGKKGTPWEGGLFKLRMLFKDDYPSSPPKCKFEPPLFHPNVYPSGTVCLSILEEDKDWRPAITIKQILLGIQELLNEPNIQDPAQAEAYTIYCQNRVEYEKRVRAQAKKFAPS

[3] = system: substrate-polySMO-1 conjugates; assay: In vitro SMO-1 deconjugation assay with SENP2 on SMO-1 chains from the peptide; format: biochemical; settings: 10μM SENP2 (human), same reaction mix as conjugation, 25°C, 2–3 hours; SDS-PAGE, FITC fluorescence
Experimental: (§1) Deconjugation Assays were performed by adding 10μM SENP2 to poly-SUMO1/2 and poly-SMO-1 chains in the same reaction mix used for conjugation. Deconjugation reaction was carried out at 25°C for 2–3 hours. Reactions were stopped by adding reducing SDS loading dye. Reaction samples were run on 12% w/v SDS PAGE and analysed by probing FITC fluorescence at 519 nm wavelength (excitation wavelength– 495 nm). SMO-1-YFP was checked for deconjugation in 50mM Tris-Cl pH 7.5 @ 25°C, 150mM NaCl, 1mM DTT reaction buffer. SENP2 was mixed with SMO-1-YFP and incubated at temperatures from 25–37°C for 6 hours. The reaction mix were then run separately on two SDS-PAGE gels for imaging using fluorescence and for staining with Coomassie Brilliant Blue R-250 Dye.
(§2) DeSUMOylation enzymes can cleave SUMO chains, making the process reversible to enable another level of control over the SUMOylation process.

[4] = system: SMO-1-YFP; assay: De-conjugation (maturation) assay of SMO-1-YFP with SENP2; format: biochemical, C. elegans; settings: 50mM Tris-Cl pH 7.5 @ 25°C, 150mM NaCl, 1mM DTT; 25–37°C, 6 hours; SDS-PAGE, YFP fluorescence and Coomassie
Experimental: as §1, §2

CC[C@H](C)[C@H](NC(=O)[C@H](CS)NC(=O)CNC(=O)[C@H](C)NC(=O)[C@@H](NC(=O)[C@@H](N)CC(=O)O)[C@@H](C)O)C(=O)N[C@H](C(=O)N[C@H](C(=O)N[C@@H](CO)C(=O)N[C@@H](CC(=O)O)C(=O)N[C@@H](CO)C(=O)N[C@@H](CCC(=O)O)C(=O)N[C@@H](CCC(=O)O)C(=O)N[C@@H](CCC(=O)O)C(=O)N[C@@H](CCC(N)=O)C(=O)NCC(=O)N[C@@H](CCC(=O)O)C(=O)N[C@@H](CCC(=O)O)C(=O)N[C@@H](Cc1c[nH]c2ccccc12)C(=O)O)[C@@H](C)CC)C(C)C [IE2-SIM]
Kd [1]: 108 µM

PLIKQEDIKPEPDFTIQYRNKIIDTAGCIVISDSEEE [synthetic peptide, synthetic peptide harbouring two consensus SUMOylation sites found in the IE2 protein]
SMO-1 conjugation on the substrate [2]: Rapid SMO-1 conjugation was observed on the substrate

B1: SENP2: human deSUMOylation enzyme (protein, UniProt Q9HC62 1-589, looked up)
Sentrin-specific protease 2: MYRWLVRILGTIFRFCDRSVPPARALLKRRRSDSTLFSTVDTDEIPAKRPRLDCFIHQVKNSLYNAASLFGFPFQLTTKPMVTSACNGTRNVAPSGEVFSNSSSCELTGSGSWNNMLKLGNKSPNGISDYPKIRVTVTRDQPRRVLPSFGFTLNSEGCNRRPGGRRHSKGNPESSLMWKPQEQAVTEMISEESGKGLRRPHCTVEEGVQKEEREKYRKLLERLKESGHGNSVCPVTSNYHSSQRSQMDTLKTKGWGEEQNHGVKTTQFVPKQYRLVETRGPLCSLRSEKRCSKGKITDTETMVGIRFENESRRGYQLEPDLSEEVSARLRLGSGSNGLLRRKVSIIETKEKNCSGKERDRRTDDLLELTEDMEKEISNALGHGPQDEILSSAFKLRITRGDIQTLKNYHWLNDEVINFYMNLLVERNKKQGYPALHVFSTFFYPKLKSGGYQAVKRWTKGVNLFEQEIILVPIHRKVHWSLVVIDLRKKCLKYLDSMGQKGHRICEILLQYLQDESKTKRNSDLNLLEWTHHSMKPHEIPQQLNGSDCGMFTCKYADYISRDKPITFTQHQMPLFRKKMVWEILHQQLL
cleavage of SMO-1 chains from peptide by SENP2 [3]: could efficiently edit the SMO-1 chains from the peptide
cleavage of SMO-1 from SMO-1-YFP by SENP2 [4]: could cleave SMO-1 from SMO-1-YFP
